Some test systems named below: XF498; DMS-273; HOP-18; DMS-114; M19-MEL; DLD-1; KM-20L2; SNB-78; RXF 631.
Holding throughout (assay): NCI anticancer screen, dose series, 48 h

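Five compound concentrations were applied to cells in 96-well plates for 48 hours; endpoints were derived by simple linear interpolation of the resulting dose-response curve. Abbreviation: GI50, concentration required for 50% inhibition of growth.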 Activity calls are given as the source filed them. Rule as the data show it: active = GI50 up to about 1.1 µM and inactive = higher.

For the compound `O=C(/C=C\c1cccc2ccccc12)c1cccc2ccccc12`, the GI50 is 7.57 µM (inactive) with XF498; 9.08 µM (inactive) in the test with DMS-273; > 10 µM (inactive) in the test on HOP-18; 5.51 µM (inactive) in the test with DMS-114; 11.4 µM (inactive) with M19-MEL; 5.43 µM (inactive) in the test on DLD-1. Besides, the GI50 is 9.55 µM (inactive) in the test on KM-20L2, > 10 µM (inactive) in the test on SNB-78 and 7.89 µM (inactive) in the test with RXF 631.
`O=C(Nc1ccccc1)N1C(c2ccccc2)=N[C@@H](c2ccccc2)[C@@H]1c1ccccc1`: the GI50 in the test with HOP-18 was 18.9 µM (inactive); in the test on DMS-114, 14.7 µM (inactive); with M19-MEL, 19.5 µM (inactive); with DLD-1, 15.1 µM (inactive); in the test with KM-20L2 it was 18.1 µM (inactive); in the test on SNB-78 it was 33.7 µM (inactive). For the same compound, the GI50 in the test on RXF 631 is 35.2 µM (inactive).
In the case of `CCOC(=O)c1ccc(N2C(=O)/C(=C\OC)c3ccccc3C2=O)cc1`, the GI50 in the test on DMS-273 is 33.1 µM (inactive); with DMS-114 it was 31.5 µM (inactive); in the test with M19-MEL, 75.2 µM (inactive); in the test with KM-20L2 it was 37 µM (inactive); in the test with SNB-78 it was 43.7 µM (inactive).
As to `CCOc1ccccc1NC(=O)C1=C(C)NC(C)=C(C(=O)Nc2ccccc2OCC)C1c1ccc(NC(C)=O)cc1`, the GI50 with XF498 was 9.68 µM (inactive); with DMS-114, 40.2 µM (inactive); in the test on M19-MEL it was 28.2 µM (inactive); in the test on DLD-1, 37 µM (inactive); in the test on KM-20L2, 25.8 µM (inactive); in the test with SNB-78, 40.9 µM (inactive).
As to `CC[n+]1c(/C=C/c2ccc(N(CCCl)CCCl)cc2)ccc2cc(I)ccc21`, the GI50 with DMS-273 is 0.525 µM (active); with HOP-18, 1.02 µM (active); in the test on DMS-114, 0.607 µM (active); in the test on M19-MEL, 0.608 µM (active); with DLD-1 it was 1.58 µM (inactive); in the test on KM-20L2, 1.02 µM (active). Also, the GI50 in the test on SNB-78 is 0.895 µM (active); in the test on RXF 631 it was 1.77 µM (inactive).
For the compound `N#CC(NNC(=O)c1ccccc1O)c1ccccc1` (centres undefined), the GI50 was 0.468 µM (active) in the test with DMS-273; 12.6 µM (inactive) with HOP-18; 0.721 µM (active) in the test with DMS-114; 1.32 µM (inactive) in the test with M19-MEL; 2.63 µM (inactive) in the test on DLD-1; 22 µM (inactive) in the test on KM-20L2. Further, the GI50 in the test on SNB-78 is 0.9 µM (active).
As for `O=c1cc2n(c(=O)[nH]1)C1OC(C(O)C1O)[C@@H]2CCO` (some centres undefined), the GI50 in the test on DMS-273, in the test with DMS-114, with M19-MEL, with DLD-1, with KM-20L2 and with SNB-78 was > 100 µM (inactive) each time.
As to `CCOC(=O)NC(=O)c1cn(CCN2CCN(C(=O)CCCCCCCCCCC(=O)N3CCN(CCn4cc(C(=O)NC(=O)OCC)c(=O)[nH]c4=O)CC3)CC2)c(=O)[nH]c1=O`, the GI50 with XF498, in the test on HOP-18, with DMS-114, with M19-MEL and in the test with DLD-1 was > 100 µM (inactive) in each case.
For the compound `CCN(CC)CCNC(=O)c1nn(C)c(=S)[nH]c1=S`, the GI50 in the test with XF498, with DMS-273, in the test on HOP-18, with DMS-114, with M19-MEL and in the test on DLD-1 was > 100 µM (inactive) in each case. The GI50 in the test with KM-20L2 and in the test with SNB-78 was > 100 µM (inactive) in each case.
For `Cc1ccc(S(=O)(=O)N/N=C/c2oc(-c3cccc([N+](=O)[O-])c3)c(-c3cccc([N+](=O)[O-])c3)c2[N+](=O)[O-])cc1`, the GI50 with XF498 is > 100 µM (inactive); with HOP-18, > 100 µM (inactive); with DLD-1, 32.2 µM (inactive); in the test with KM-20L2, > 100 µM (inactive); with RXF 631 it was 62.1 µM (inactive).
For `COC(=O)C1CC2(CC3=C1CCCC3)OCCO2` (centres undefined), the GI50 in the test with XF498, with DMS-273, in the test on DMS-114, with M19-MEL, in the test with DLD-1 and in the test with SNB-78 was > 100 µM (inactive) throughout. Besides, the GI50 in the test on RXF 631 is > 100 µM (inactive).
Take `COc1cc(CC(=O)O)c([N+](=O)[O-])cc1OC`: the GI50 with DMS-273, with DMS-114, in the test on M19-MEL, in the test on DLD-1, in the test on KM-20L2 and in the test with SNB-78 was > 100 µM (inactive) throughout. The GI50 in the test with RXF 631 is > 100 µM (inactive).
Consider `NC1c2ccccc2Nc2ccccc21`, for which the GI50 with XF498 was 3.16 µM (inactive); in the test with DMS-273, 4.52 µM (inactive); with HOP-18, 8.81 µM (inactive); with DMS-114, 3.24 µM (inactive); in the test on M19-MEL, 3.36 µM (inactive); in the test on DLD-1, 3.8 µM (inactive). Besides, the GI50 in the test on KM-20L2 was 3.76 µM (inactive); in the test on SNB-78, 9.1 µM (inactive).
As for `CC(O)C1OC(n2ccc(=O)[nH]c2=O)CC1n1cncn1` (centres undefined), the GI50 with XF498, in the test on DMS-273, in the test on DMS-114, in the test with M19-MEL, in the test with DLD-1 and with KM-20L2 was > 100 µM (inactive) throughout.
As to `CC1=N/C(=C\c2ccc([N+](=O)[O-])cc2)C(=O)O1`, the GI50 in the test with HOP-18, in the test on DMS-114, in the test with M19-MEL, in the test with DLD-1, in the test on KM-20L2 and in the test on SNB-78 was > 100 µM (inactive) throughout. The GI50 in the test with RXF 631 is > 100 µM (inactive).
Take `C[C@]12CC[C@H](O)CC1=CC[C@@H]1C2CC[C@]2(C)Nc3c(cnn3-c3ccccc3)CC12` (some centres undefined): the GI50 was 0.869 µM (active) in the test on DMS-273; 2.82 µM (inactive) in the test with DMS-114; 5.35 µM (inactive) in the test with M19-MEL; 3.52 µM (inactive) in the test on DLD-1; 1.38 µM (inactive) in the test on KM-20L2; 8.2 µM (inactive) in the test on SNB-78. The GI50 in the test with RXF 631 is 0.44 µM (active).
On to `CN(C)CC/C(=N\Nc1ccc([N+](=O)[O-])cc1)c1ccccc1`, for which the GI50 in the test on DMS-273 is 10.3 µM (inactive); with HOP-18, 7.62 µM (inactive); with DMS-114, 5.14 µM (inactive); in the test with DLD-1, 13.3 µM (inactive); in the test with KM-20L2, 4.33 µM (inactive); with SNB-78 it was 4.4 µM (inactive).
As for `CCCc1c(C(=O)OCC)[nH]c(-c2ccc(-c3[nH]c(C(=O)OCC)c(CCC)c3C(=O)OCC)s2)c1C(=O)OCC`, the GI50 in the test with XF498 is 27.3 µM (inactive); in the test with DMS-273 it was 30.7 µM (inactive); in the test with HOP-18 it was > 100 µM (inactive); in the test with DMS-114 it was 38.1 µM (inactive); with M19-MEL it was 52.8 µM (inactive); in the test on DLD-1, > 100 µM (inactive). Further, the GI50 in the test on KM-20L2 was 72.1 µM (inactive); in the test on SNB-78, > 100 µM (inactive).
With `On1c(-c2ccccc2)c(-c2c(-c3ccccc3)n(O)c3ccccc23)c2ccccc21`, the GI50 is 19.8 µM (inactive) with XF498; 39.6 µM (inactive) in the test with DMS-273; 26.1 µM (inactive) in the test on HOP-18; 24.7 µM (inactive) with DMS-114; 11.2 µM (inactive) with M19-MEL; 54.6 µM (inactive) in the test with DLD-1. In the test with SNB-78, the GI50 is 35.7 µM (inactive).
With `O=C(/C=C/c1ccccc1)NC1C=Nc2ccc(Cl)cc2NC1=O` (centres undefined), the GI50 in the test on XF498 was 13.3 µM (inactive); in the test with DMS-273, 18.2 µM (inactive); with HOP-18, 20.7 µM (inactive); in the test on DMS-114 it was 5.66 µM (inactive); in the test on M19-MEL, 23 µM (inactive); in the test with DLD-1 it was 20.8 µM (inactive). The GI50 in the test on KM-20L2 was 26 µM (inactive); with SNB-78, 53.7 µM (inactive); in the test on RXF 631, 19.5 µM (inactive).
For the compound `O=C1Oc2cc3c(c4cccc1c24)OCN(c1ccc(Cl)cc1)C3`, the GI50 in the test with XF498 was 16.7 µM (inactive); with DMS-273, 0.423 µM (active); with HOP-18, 34 µM (inactive); in the test with DMS-114, 5.9 µM (inactive); with M19-MEL it was 14.4 µM (inactive); in the test on DLD-1 it was 5.42 µM (inactive). Moreover, the GI50 in the test with SNB-78 is > 100 µM (inactive).
On to `Cc1ccccc1C(CCCO)C(=O)O` (centres undefined), for which the GI50 in the test on XF498, with DMS-273, in the test on DMS-114, in the test on M19-MEL, in the test with DLD-1 and with SNB-78 was > 100 µM (inactive) each time.
`O[C@]12c3ccccc3C1CCCCC2N1CCOCC1` (some centres undefined): the GI50 in the test with XF498, in the test with DMS-273, in the test on HOP-18, in the test on DMS-114, in the test with M19-MEL and in the test with KM-20L2 was > 100 µM (inactive) each time. Moreover, in the test with SNB-78, the GI50 is > 100 µM (inactive).
Take `Cc1c(C(=O)C/C(=N/NC(=O)c2ccccc2)C(=O)Nc2ccc(Cl)cc2)[n+]([O-])c2ccccc2[n+]1[O-]`: the GI50 with XF498 is > 100 µM (inactive); with DMS-273, 75.2 µM (inactive); in the test with HOP-18, > 100 µM (inactive); in the test with DMS-114, 32.6 µM (inactive); in the test on DLD-1 it was 75.7 µM (inactive); with SNB-78, > 100 µM (inactive). Moreover, the GI50 in the test with RXF 631 is > 100 µM (inactive).
For the compound `CCSC1=C(C)N(/C=N/C(C)(C)C)CC1`, the GI50 in the test on XF498, with DMS-273, in the test with HOP-18, in the test on DMS-114, in the test on M19-MEL and in the test on DLD-1 was > 100 µM (inactive) throughout. In addition, the GI50 in the test on KM-20L2, in the test with SNB-78 and in the test on RXF 631 was > 100 µM (inactive) in each case.
